Assay results as given in patent publication US10993940B2, “Methods of enhancing immune response” (NOVARTIS AG, priority 2016, dated 2021).
Entries after “also recorded” stand apart in the source; their conditions may differ.

Columns and labels:
PI3K/mTOR = details: relatively higher concentrations; cited from earlier work
[1] = pH 3
[2] = system: immune system and interferon-induced gene expression in whole blood; assay: RNAseq gene expression profiling and pathway enrichment analysis in whole blood, baseline vs after 6 weeks of treatment; assay type: in vivo, Homo sapiens; details: for Up-regulated genes: Tukey outlier of log 2(FC post- vs pre-treatment); for Mean FC Genes In Pathway: whole blood, post- vs pre-treatment (6 weeks)
Experimental: Peripheral venous blood samples were collected into PAXgene Blood RNA tubes. Total RNA was purified from PAXgene collected blood and the quality and yield of the isolated RNA assessed using an Agilent 2100 Bioanalyzer (Agilent Technologies, Santa Clara, Calif., USA). RNA-Seq libraries were prepared from the RNA using the Illumina TruSeq Stranded Total RNA with the Ribo-Zero Globin Kit. This kit performed the removal of ribosomal RNA and globin mRNA in a single step. The obtained libraries were sequenced using the Illumina HiSeq2500 platform in paired-end mode to a read length of 2×76 base-pairs (bp). Images from the instrument were processed using the manufacturer's software to generate FASTQ sequence files. Read quality was assessed by running FastQC (version 0.10) on the FASTQ files. […] An average of 100 million 76 bp paired-end reads per sample were mapped to the Homo sapiens genome (version GRCh38) and RefSeq UCSC was used for human gene and transcript annotation. An in-house gene quantification pipeline was used to determine the number of counts mapping to each gene (Schuierer, S. & Roma, G. The exon quantification pipeline (EQP): a comprehensive approach to the quantification of gene, exon and junction expression from RNA-seq data. Nucleic acids research (2016)). On average, 88% of the total reads were mapped to the genome or the transcripts, and 30% of the aligned reads mapped to expressed sequences. […] Any gene with an average expression of less than one count per million in any treatment/time condition was considered undetectable and removed from further analysis. Count data for remaining genes was then normalized in R Statistical Computing Software (v3.1.3) using the voom normalization procedure located in the limma package (Law, C W, Chen, Y, Shi, W, and Smyth, G K (2014). Voom: precision weights unlock linear model analysis tools for RNA-seq read counts. Genome Biology 15, […]). […] Thus, we included the value of this principle component as an adjustment for technical variation in subsequent analysis. For each gene, the following linear mixed model was fit to the voom-normalized expression data, adjusting for relevant covariates (age, gender, and BMI) as well as PC1 using SAS v9.3 software. • proc mixed […]; • class SubjID Day Trt Gender; • model log 2[…] Age Gender Bmi/solution DDFM=KenwardRoger; • repeated Day/type=un subject=SubjID; • by gene; where log 2exprs refers to the voom-normalized expression measurement; Day refers to the timepoint the sample was taken (pre- or post-dose); Trt refers to the treatment group of the subject; PC1 refers to the value of PC1 for that sample; Age refers to the age of the subject; Gender refers to the sex of the subject; Bmi refers to the body mass index of the subject; and SubjID refers to the ID of the subject. Differential expression fold changes and p-values were obtained using the SAS estimate statement. […] These gene expression signatures consisted of the post-vs pre-treatment fold change and p-values for each treatment. […] Canonical pathways (c2.cp.v5.0.entrez.gmt) were downloaded from the canonical signatures database (http://software.broadinstitute.org/gsea/msigdb/). Signatures were defined as described in the “RNASeq Differential Expression Analysis” section. For each pathway and treatment response signature, a weighted KS test was performed as previously described (Subramanian et al. Gene set enrichment analysis: A knowledge-based approach for interpreting genome-wide expression profiles. Proc. Nat. Acad.

[3] = human, in vivo
Experimental: In some embodiments, dosing regimens contemplated herein comprise administering daily an amount of RAD001 ranging from about 0.015 mg to about 0.1 mg.

[4] = oncology indications; cited from earlier work
mTORC1 and mTORC2 = mTORC1 and mTORC2 (Homo sapiens, UniProt P42345); details: low concentration; cited from earlier work
mTORC1 = mTORC1 (Homo sapiens, UniProt P42345); details: very low concentration; cited from earlier work
[5] = system: respiratory tract infections; assay: Respiratory tract infections during the 6 weeks of study drug treatment; assay type: in vivo, human; details: BEZ235 10 mg daily
Experimental: (Top) The percentage of subjects in each cohort who reported having one or more respiratory tract infections during the 6 weeks they were treated with study drug is shown. (Bottom) The percentage of subjects who experienced respiratory tract infections of moderate severity during the 6 weeks they were treated with study drug is shown. No subjects in the study experienced respiratory tract infections that were assessed as severe. The numbers on top of each bar indicate the percent change relative to placebo.
The rate of infections during the 6 weeks subjects were treated with study drug was also examined. The main infections that occurred during the 6 weeks of study drug treatment were respiratory tract infections.

[6] = human, in vivo, 10 mg
tooth or gum infections = assay: Tooth or gum infections during one year after study drug administration
Experimental: A total of 264 elderly volunteers ≥65 years of age, without unstable medical conditions, were enrolled in a randomized double blind placebo-controlled trial. […] Subjects were treated for 6 weeks with study drug and, after a 2 week drug-free interval, were given a 2014 seasonal influenza vaccine (Fluvax®, CSL Biotherapies). […] The subjects were then followed for another 9 months off study drug.
As an additional assessment of immune function, the overall infection rate in each treatment group was assessed by having subjects record any infections they experienced during the year following the initiation of study drug treatment in a diary that was reviewed by study investigators at each study visit.

urinary tract infections = assay: Urinary tract infections during one year after study drug administration; assay type: in vivo, human
infections = assay: Overall infection rate recorded by diary during the year following initiation of study drug; assay type: in vivo, human; details: elderly >=65 years
[7] = REACTOME_INTERFERON_ALPHA_BETA_SIGNALING
[8] = REACTOME_INTERFERON_GAMMA_SIGNALING

Cn1c(=O)n(-c2ccc(C(C)(C)C#N)cc2)c2c3cc(-c4cnc5ccccc5c4)ccc3ncc21 [BEZ235, 2-methyl-2-[4-(3-methyl-2-oxo-8-quinolin-3-yl-2,3-dihydro-imidazo[4,5-c]quinolin-1-yl)-phenyl]-propionitrile]
concentration of dual PI3K/mTOR inhibition (PI3K/mTOR): approximately 500 nmol/L
solubility [1]: low
Up-regulated genes ([2]; REACTOME_CYTOKINE_SIGNALING_IN_IMMUNE_SYSTEM, listed as Bez): IFITM3; FCGR1A; FCGR1B; HLA-DQA2; and CDK1
Mean FC Genes In Pathway ([2]; REACTOME_CYTOKINE_SIGNALING_IN_IMMUNE_SYSTEM): 0.02
Up-regulated genes ([2]; REACTOME_IMMUNE_SYSTEM, listed as Bez): IFITM3; LILRB4; TRIM9; FCGR1A;; also recorded: FCGR1B; CD274; HLA-DQA2; RAP1GAP;; also recorded: TLR5; C1QA; C1QB; C3; C4BPA;; also recorded: PDCD1LG2; KLHL13; CD80; CDK1
Mean FC Genes In Pathway ([2]; REACTOME_IMMUNE_SYSTEM): 0.01
Up-regulated genes [2, 7]: IFITM3
Mean FC Genes In Pathway [2, 7]: 0.03
Up-regulated genes [2, 8]: FCGR1A; FCGR1B; HLA-DQA2
Mean FC Genes In Pathway [2, 8]: 0.04
Up-regulated genes ([2]; REACTOME_INTERFERON_SIGNALING): IFITM3; FCGR1A; FCGR1B, HLA-DQA2
Mean FC Genes In Pathway ([2]; REACTOME_INTERFERON_SIGNALING): 0.03
tolerability [3]: well tolerated
maximum tolerated dose [4]: 1200 mg daily
concentration at which mTORC1 and mTORC2 inhibition predominates (mTORC1 and mTORC2): less than 200 nmol/L
concentration at which mTORC1 inhibition predominates (mTORC1): less than or equal to 10 nmol/L
incidence and severity of respiratory tract infections during the 6 weeks subjects were treated with study drug [5]: reduction
inter-patient variability, AUClast,ss % CV [6]: 39%

CO[C@H]1C[C@@H]2CC[C@@H](C)[C@@](O)(O2)C(=O)C(=O)N2CCCC[C@H]2C(=O)O[C@H]([C@H](C)C[C@@H]2CC[C@@H](OCCO)[C@H](OC)C2)CC(=O)[C@H](C)/C=C(\C)[C@@H](O)[C@@H](OC)C(=O)[C@H](C)C[C@H](C)/C=C/C=C/C=C/1C [RAD001, (1R,9S,12S,15R,16E,18R,19R,21R,23 S,24E,26E,28E,30S,32S,35R)-1,18-dihydroxy-12-{(1R)-2-[(1 S,3R,4R)-4-(2-hydroxyethoxy)-3-methoxycyclohexyl]-1-methylethyl}-19,30-dimethoxy-15,17,21,23,29,35-hexamethyl-11,36-dioxa-4-aza-tricyclo[30.3.1.04,9]hexatriaconta-16,24,26,28-tetraene-2,3,10,14,20-pentaone]
Number of tooth or gum infections per person for one year after study drug administration (tooth or gum infections; RAD001 0.1 mg daily): .02
Number of tooth or gum infections per person for one year after study drug administration (tooth or gum infections; RAD001 0.5 mg daily): .02
Percent of subjects with urinary tract infections during one year after study drug administration (urinary tract infections; RAD001 0.1 mg daily, N = 51): 10%
Percent of subjects with urinary tract infections during one year after study drug administration (urinary tract infections; RAD001 0.5 mg daily, N = 46): 11%
Infection rate/person for one year after study drug administration (infections; RAD001 0.1 mg daily for 6 weeks): 2.0
Infection rate/person for one year after study drug administration (infections; RAD001 0.5 mg daily for 6 weeks): 2.1
